Values quoted from earlier work as cited in patent US20230398240A1, “THERAPEUTIC RADIOLABELLED CONJUGATES AND THEIR USE IN THERAPY” (priority 2020, published 2023).

Experiments:
[1] = test system: quiescent endothelial cells; settings: in vitro

SMILES: N[C@@H](CCC(=O)N[C@@H](CSCC(=O)Nc1ccc([As](O)O)cc1)C(=O)NCC(=O)O)C(=O)O [GSAO, 4-(N—(S-glutathionylacetyl)amino)phenylarsenous acid]
- toxicity to quiescent endothelial cells [1]: nontoxic to quiescent endothelial cells
- toxicity to proliferating cells (proliferating cells): toxic to proliferating cells
- effect on angiogenesis in vivo (angiogenesis): inhibits angiogenesis in vivo
